# Measured values published in US20220087987A1, “A METHOD FOR TREATING SWI/SNF COMPLEX-DEFICIENT CANCERS COMPRISING GLUTATHIONE (GSH) METABOLIC PATHWAY INHIBITOR” (National Cancer Center, priority 2018, published 2022).
# How the values were obtained:
# [1] = tested on: ARID1A-proficient and ARID1A-deficient cancer cell lines; assay: Cell viability and colony formation in cancer cell line panel; type: cell-based, human
# [2] = tested on: ARID1A-KO cells and ARID1A-deficient cancer cells; assay: Apoptosis detection (cleaved caspase-3/7, Annexin V); type: cell-based, human
# Protocol: The Annexin V-FITC/PI Apoptosis Detection Kit (Sigma-Aldrich) was used to detect apoptotic cells. Briefly, the cell pellet was suspended in 1× binding buffer and then incubated with Annexin V-FITC and PI in the dark for 10 min. Fluorescence was analyzed on a Guava flow cytometer (Millipore). Data were analyzed using GuavaSoft software (v. 2.7). Relative ratios of the Annexin V-positive fraction in treated samples were normalized against untreated samples.
# GSH, ROS and apoptosis were detected using the GSH/GSSG-Glo Assay (Promega) and/or the GSH-Glo Assay (Promega), the ROS-Glo Assay (Promega), and the Caspase-Glo 3/7 Assay, respectively. To measure levels of GSH, ROS and apoptosis after drug treatment, cells were trypsinized, counted, reseeded at the specified density in 96-well plates and exposed to the indicated concentrations of drugs. After 16-48 hrs, luminescence was measured using an Envision Multi-label plate reader (PerkinElmer). […] Cells were trypsinized after a further 48 hrs, counted, and reseeded at the specified density in 96-well plates. After 72-120 hrs, luminescence was measured using an Envision Multi-label plate reader (PerkinElmer). Cell viability was also measured using the CellTiter-Glo Luminescent Cell Viability Assay (Promega). […] The GSH/GSSG ratio was calculated as the GSH-GSSG signal divided by the GSSG/2 signal. […]
# GSH = assay: Detection of GSH in cells (GSH/GSSG-Glo, GSH-Glo); type: cell-based, human; settings: ARID1A-deficient versus ARID1A-proficient ovarian and other cancer cells
# ROS = assay: Detection of ROS in cells (ROS-Glo); type: cell-based, human; settings: ARID1A-deficient versus ARID1A-proficient ovarian and other cancer cells
# Protocol: GSH, ROS and apoptosis were detected using the GSH/GSSG-Glo Assay (Promega) and/or the GSH-Glo Assay (Promega), the ROS-Glo Assay (Promega), and the Caspase-Glo 3/7 Assay, respectively. To measure levels of GSH, ROS and apoptosis after drug treatment, cells were trypsinized, counted, reseeded at the specified density in 96-well plates and exposed to the indicated concentrations of drugs. After 16-48 hrs, luminescence was measured using an Envision Multi-label plate reader (PerkinElmer). To measure levels of GSH and ROS after siRNA-mediated knockdown, cell lines were transfected with siRNAs (25 nM) using Lipofectamine RNAiMAX. After 48 hrs, cells were trypsinized and transfected repeatedly with siRNAs (25 nM) using Lipofectamine RNAiMAX. Cells were trypsinized after a further 48 hrs, counted, and reseeded at the specified density in 96-well plates. After 72-120 hrs, luminescence was measured using an Envision Multi-label plate reader (PerkinElmer). Cell viability was also measured using the CellTiter-Glo Luminescent Cell Viability Assay (Promega). Caspase-3/7, GSH, and ROS levels were normalized against cell viability. The GSH/GSSG ratio was calculated as the GSH-GSSG signal divided by the GSSG/2 signal. Relative signal ratios in treated samples were normalized against untreated samples.
# ovarian PDCs = assay: Cell viability of ovarian patient-derived cancer cells; type: cell-based, human; settings: 33 μM APR-246 or 100 μM BSO for 6 days
# Protocol: Tumor samples and ascites were obtained from four ovarian cancer patients who underwent surgery or cell-free and concentrated ascites reinfusion therapy at the National Cancer Center Hospital or Kaname-cho Hospital (Tokyo, Japan) and were cultured in vitro. This protocol was approved by the Institutional Review Board of the National Cancer Center (Tokyo, Japan), and informed consent was obtained from the patients. To establish CCCO219 and CCC1216 PDCs, patient ascites (24 ml) were diluted in two volumes of PBS containing 2 mM EDTA, layered over 15 ml Ficoll-Paque PLUS (GE Healthcare), and centrifuged at 2200 rpm for 30 min. The interphase mononuclear layer was transferred to a fresh conical tube and washed twice with PBS containing 2 mM EDTA. […]
# Cell viability was examined by measuring the cellular ATP level using the CellTiter-Glo Luminescent Cell Viability Assay (Promega). […] Cells were trypsinized after a further 48 hrs, counted, and reseeded at the specified density in 96-well plates. To measure cell viability after drug treatment, cells were trypsinized, counted, reseeded at the specified density in 96-well plates, and exposed to the indicated concentrations of drugs. Cell viability was measured using the CellTiter-Glo Luminescent Cell Viability Assay. Luminescence was measured using an Envision Multi-label plate reader (PerkinElmer).
# [3] = tested on: ARID1A-deficient TOV21G OCCC xenografts; assay: Mouse xenograft model, TOV21G; type: in vivo, mice; settings: APR-246 50 mg/kg
# Protocol: All mouse experiments were approved by the National Cancer Center (NCC) animal Ethical Committee. Cells were counted and re-suspended in a 1:1 mixture of 100 μl culture medium and 100 μl Matrigel (BD Biosciences) on ice. […] In the subcutaneous model, once the tumors were palpable (about 3-14 days after implantation), mice were randomly divided into two groups. […] In the doxycycline (Dox) treatment study, TOV21G-shNT cells and TOV21G-shGCLC cells were injected into the flanks of 6-week-old female BALB/c-nu/nu mice. […] In other experiments, TOV21G-shNT cells and TOV21G-shGCLC cells were treated with Dox (0.5 μg/ml) for 4 days and then injected into the flank of 6-week-old female BALB/c-nu/nu mice. […] Tumor growth was measured every several days using calipers. The volume of implanted tumors was calculated using the formula V=L×W2/2, where V is volume (mm^3), L is the largest diameter (mm), and W is the smallest diameter (mm). At the end of the experiment, mice were sacrificed in accordance with standard protocols.
# GSH was detected using the GSH-Glo Assay (Promega). Tumor samples derived from xenografts were weighed and washed with PBS. The tumor samples were mixed with 50 μl of PBS and homogenized using a Mini Cordless Grinder (Funakoshi). PBS (950 μl) was added to homogenized tumor samples and centrifuged at 4° C. for 10 min at 15,000 rpm. Tumor extract and 2×GSH-Glo Reagent (25 μl of each) were mixed in white 96-well plates (Greiner) and incubated for 30 min at room temperature. Luciferin Detection Reagent (50 μl) was added and the samples were incubated for 15 min at room temperature. Luminescence was measured using an Envision Multi-label plate reader (PerkinElmer). GSH signal intensities per 1 mg of tumor sample were calculated.
# Formalin-fixed, paraffin-embedded ovarian cancer clinical specimens and TOV21G xenografts were deparaffinized and representative whole 4-μm-thick sections were analyzed by IHC. […] The samples were removed from the freezer and equilibrated at −20° C. for approximately 15 minutes before sectioning. Tissue sections (6 μm thick) were placed on positively charged slides, dried, and fixed for 15 minutes at room temperature in 3% formaldehyde, followed by 5 minutes in methanol at −20° C. After fixation, representative sections were analyzed by IHC. […] All IHC staining was performed using a Dako autostainer Link48 (Dako).
# First, membrane staining intensity (0, 1+, 2+, or 3+) was determined for each cell in a fixed field. The H-score was assigned using the following formula: [1×(% cells 1+)+2×(% cells 2+)+3×(% cells 3+)]. The final score, ranging from 0 to 300, gives more relative weight to higher-intensity membrane staining in a given tumor sample. The percentage of NOXA-, cleaved caspase-3-, cleaved PARP- and Ki67-positive cells (of the total number of cells) in each slide were counted.
# [4] = tested on: diffuse-type gastric cancer PDCs; assay: Cell viability of diffuse-type gastric cancer PDCs; type: cell-based, human; settings: treatment for 6 days
# [5] = tested on: uterine cancer cell lines; assay: Cell viability of uterine cancer cell lines; type: cell-based, human; settings: treatment for 6 days
# Protocol: (§1) Cell viability was examined by measuring the cellular ATP level using the CellTiter-Glo Luminescent Cell Viability Assay (Promega). To measure cell viability after siRNA-mediated knockdown, cell lines were transfected with siRNAs (25 nM) using Lipofectamine RNAiMAX. After 48 hrs, cells were trypsinized and repeatedly transfected with siRNAs (25 nM) using Lipofectamine RNAiMAX. Cells were trypsinized after a further 48 hrs, counted, and reseeded at the specified density in 96-well plates. To measure cell viability after drug treatment, cells were trypsinized, counted, reseeded at the specified density in 96-well plates, and exposed to the indicated concentrations of drugs. Cell viability was measured using the CellTiter-Glo Luminescent Cell Viability Assay. Luminescence was measured using an Envision Multi-label plate reader (PerkinElmer).
# [6] = tested on: bile duct cancer cell lines; assay: Cell viability of bile duct cancer cell lines; type: cell-based, human; settings: treatment for 6 days
# Protocol: as §1
# [7] = tested on: SWI/SNF complexes (SMARCA2, SMARCA4, SMARCB1, PBRM1) deficient cancer cells; assay: Cell viability of SWI/SNF complex-deficient cancer cell lines; type: cell-based, human; settings: treatment for 6 days
# Protocol: as §1
smiles,measurement,setting,value
"CCCCS(=N)(=O)CCC(N)C(=O)O (stereo not shown) [BSO, buthionine sulfoximine]",sensitivity of ARID1A-deficient TOV21G versus ARID1A-proficient RMG-I ovarian cancer cells,[1]; cell viability after 3 days,more sensitive than ARID1A-proficient RMG-I ovarian cancer cells
same,sensitivity of ARID1A-deficient versus ARID1A-proficient cancer cells,"[1]; four ARID1A-proficient and six ARID1A-deficient cell lines, cell viability, colony formation",selectively sensitive to BSO
same,"apoptosis (caspase activation, Annexin V)",[2],increased apoptosis
same,GSH level in cancer cell lines,GSH,decreased the GSH level
same,ROS level in cancer cell lines,ROS,increased ROS levels
same,sensitivity of ARID1A-deficient versus ARID1A-positive PDCs,ovarian PDCs,more sensitive
same,tumor weight,[3]; BSO 750 mg/kg,reduced tumor weight
same,body weight of mice,[3]; BSO 750 mg/kg once a day,without loss of body weight
same,growth of xenografts (tumor volume),"[3]; intraperitoneally once daily 12-14 days, BSO 750 mg/kg",markedly suppressed xenograft growth
same,sensitivity to BSO (relative AUC for cell viability),[4],sensitized ARID1A-deficient PDCs more efficiently than ARID1A-proficient PDCs
same,sensitivity to BSO of uterine cancer cell lines,[5],sensitized ARID1A-deficient cell lines more efficiently than ARID1A-proficient cell lines
same,sensitivity to BSO of bile duct cancer cell lines,[6],sensitized ARID1A-deficient cell lines more efficiently than ARID1A-proficient cell lines
same,sensitivity to BSO (relative AUC for cell viability),[7],sensitized these SWI/SNF complexes deficient cell lines more efficiently than these SWI/SNF complexes proficient cell lines
